# Measured values: patent publication US20150040894A1 (VIRGINIA COMMONWEALTH UNIVERSITY, priority 2010, published 2015)
# What was measured:
# [1] = system: IL-8 mRNA expression in NHBE cells; assay: IL-8 mRNA expression by real-time quantitative PCR; type: cell-based, human; conditions: 4 h
# Procedure: For the relative quantification of IL-8 mRNA expression, the expression of glyceraldehyde-3-phosphate dehydrogenase (GAPDH) was served as an internal control. EvaGreen was used as a DNA intercalator dye to monitor amplified DNA quantification, and real-time quantitative PCR curves were analyzed by the CFX Manager™ software (Bio-Rad) in order to obtain threshold cycle (Ct) values for each sample. Quantification was based on a standard curve. Appropriate IL-8 and GADPH forward and reverse primers were used.
# [2] = system: IL-8 secretion from NHBE cells; assay: LPS-induced IL-8 secretion from NHBE cells in culture (ELISA); type: cell-based, human
# Procedure: NHBE cells (Lonza Walkersville, Walkersville, Md.) were plated at 3,500 cells/cm^2 in culture dishes in bronchial epithelial cell growth medium (BEGM) supplemented with the SingleQuot® kit (Lonza) without antibiotics and cultured at 37° C. in a 5% CO2 incubator. We used endotoxin-free media (<0.005 endotoxin units/ml) and second-passage cells for all experiments. Cells were grown to confluence for 6 days. Cultures without antibiotics were then transferred to 6-well or 35 mm dishes coated with type 1 rat-tail collagen and seeded at 3,500 cells/cm^2. The medium was changed every 24 h. To avoid influence of growth factors on cell signaling and IL-8 secretion, cells were cultured in supplement-free bronchial epithelial cell basal medium (BEBM) for 24 h before stimulation. We evaluated cell response at the time of cell confluence rather than normalize to the relative number of cells because cell maturation could affect cell signaling and cytokine secretion, and at confluence, all cells are at similar growth stages. Culture supernatants were collected and centrifuged for 5 min at 200×g and stored at −20° C. until assayed. IL-8 was measured by ELISA (Beckman Coulter, Inc., Brea, Calif.) according to the manufacturer's instructions. Concentrations in each sample were obtained by interpolation from standard curves, and calculated as the mean of the results at the sample dilution. […] We chose to assess cell response at the time of cell confluence rather than normalize to the relative number of cells, because cell maturation could potentially affect cell signaling and cytokine secretion, and at confluence, all cells are at similar growth stages.
# [3] = system: ERK1/2 phosphorylation in NHBE cells; assay: LPS-induced phosphorylation of MAPKs (Western blotting); type: cell-based, human
# Procedure: Membranes were stripped with a stripping buffer (100 mM 2-mercaptoethanol, 2% SDS, and 62.5 mM Tris/HCl pH 6.7) for 30 min at 30° C. The blots were reprobed with anti-p44/42 MAPK, anti-p38 MAPK, or anti-SAPK/JNK antibody (diluted 1:1000 for each), followed by anti-rabbit-IgG HRP secondary antibody (diluted 1:2000). To correct small differences in loading for NF-κB p65, blots were stripped, and reprobed with anti-human β-actin antibody (diluted 1:5000), followed by anti-mouse IgG HRP secondary antibody (diluted 1:5000). Western blot images were scanned and analyzed on NIH Image J software (18).
# [4] = system: apical and basolateral IL-8 secretion from ALI-conditioned NHBE cells; assay: IL-8 secretion from NHBE cells cultured under air-liquid interface (ALI) condition; type: cell-based, human; conditions: dapsone 1 μg/ml in basolateral medium, LPS 10 μg/ml 24 h
# Procedure: For NHBE cell differentiation, cells were plated at 2.0×10^5 cells/cm^2 onto polycarbonate inserts of 6.5-mm diameter, 0.4-μm pore size and 10-μm thickness (Costar Transwell Clear, Cambridge, Mass., USA) coated with type 1 rat-tail collagen, and cultured with serum-free DMEM/F12 medium containing ITS-A (1.0%; Invitrogen Co., Carlsbad, Calif.), epidermal growth factor (EGF) (recombinant human EGF, 0.5 ng/ml; Invitrogen Co.), triiodothyronine (10 ng/ml; […] Sigma-Aldrich), bovine serum albumin (2.0 μg/ml; Sigma-Aldrich) and bovine pituitary extract (30 μg/ml; Invitrogen Co.). After achieving confluence, the apical medium was removed, and cells were cultured with an air-liquid-interface (ALI) method. The culture medium was changed every 48 h, and cells were maintained at 37° C. in a 5% CO2, for 10-14 days. Culture supernatants were collected and centrifuged for 5 min at 200×g and stored at −20° C. until assayed. IL-8 was measured by ELISA (Beckman Coulter, Inc., Brea, Calif.) according to the manufacturer's instructions. Concentrations in each sample were obtained by interpolation from standard curves, and calculated as the mean of the results at the sample dilution. […] NHBE cells were stimulated with LPS from the apical (AP-LPS) or basolateral side (BL-LPS) for 24 h, and IL-8 secretion levels in both chambers were measured. […]
# [5] = system: NF-κB p65 phosphorylation in NHBE cells; assay: LPS-induced phosphorylation of NF-κB p65 (Western blotting); type: cell-based, human
# Procedure: After stimulation, the plated cells were washed with cold PBS, and then lysed on ice in a modified radio immunoprecipitation buffer (1% Nonidet P-40, 1% sodium deoxycholate, 150 mM NaCl, 10 mM Tris pH 7.5, 5 mM sodium pyrophosphate, 1 mM NaVO4, 5 mM NaF, 1 μg/ml aprotinin, 1 μg/ml leupeptin, and 0.1 mM PMSF) for 15 min and then scraped from the dishes. DNA was sheared by passing the lysate though a 27-gauge needle, and insoluble material was removed by centrifugation at 20,000 g for 15 min at 4° C. The protein concentration of the resulting supernatant was quantified by the DC protein assay (Bio-Rad, Hercules, Calif.). Equal amounts of protein extracts were loaded on a 12% SDS-PAGE mini gel and transferred to a nitrocellulose membrane (Bio-Rad). Membranes were blocked with blocking buffer (150 mM NaCl, 20 mM Tris, and 0.1% Tween 20, pH 7.6) containing 5% nonfat dry milk at 4° C. overnight. Subsequently, membranes were rinsed and incubated with the primary antibody: phospho (p)-p44/42 MAPK (Thr202/Tyr204) (diluted 1:2000), p-p38 MAPK (Thr180/Tyr182) (diluted 1:1000), p-SAPK/JNK (Thr183/Tyr185) (diluted 1:1000), or p-NF-κB p65 rabbit polyclonal IgG (diluted 1:1000) (Cell Signaling Technology), for 2 h at room temperature. The membranes were then incubated at room temperature for 1 h with the anti-rabbit IgG HRP secondary antibody (diluted 1:2000). Subsequently, the blots membranes were developed with LumiGLO chemiluminescent substrate peroxide (Cell Signaling Technology).
# Membranes were stripped with a stripping buffer (100 mM 2-mercaptoethanol, 2% SDS, and 62.5 mM Tris/HCl pH 6.7) for 30 min at 30° C. The blots were reprobed with anti-p44/42 MAPK, anti-p38 MAPK, or anti-SAPK/JNK antibody (diluted 1:1000 for each), followed by anti-rabbit-IgG HRP secondary antibody (diluted 1:2000). […] Western blot images were scanned and analyzed on NIH Image J software (18).
# The […] phosphorylation of NF-κB p65 was measured by Western blotting. The band intensity was calculated with NIH Image J software.
# [6] = Ferret activity, appetite and weight after tracheal LPS with and without dapsone; type: in vivo; conditions: LPS 5 days, 5-day dapsone treatment (oral or nebulized) vs vehicle
# Procedure: (§1) Twenty adult male ferrets (weight, 1.3 to 2.0 kg) were obtained from Marshall Farms (Rose, N.Y.). Ferrets were anesthetized with 40 mg/kg ketamine and 5 mg/kg xylazine, and exposed to endotoxin for 30 min once daily for 5 days by incubating with a 3.0 uncuffed endotracheal tube (ETT) coated with 10 mg of LPS mixed in 300 μl water soluble K-Y jelly (Johnson & Johnson, New Brunswick, N.J.) (Abanses et al., 2009). As controls, K-Y jelly without LPS was used in two ferrets.
# This is equivalent to the oral dose used to treat persons with skin disease. For aerosol inhalation, ferrets were shallowly intubated with ETT, which was placed 1 cm below the larynx. […] Ferrets (body weight 1.5 kg) have 0.3-0.4 ml total lung lining fluid volume. Therefore, the dose delivered to the lung, is estimated to be 0.1 to 1.0 μg in this system given reported nebulization efficiency.
# [7] = system: LPS-inflamed ferret trachea; assay: Intraepithelial neutrophil accumulation in LPS-inflamed ferret trachea; type: in vivo; conditions: 5 days
# [8] = system: LPS-inflamed ferret trachea; assay: Mucociliary transport (MCT) on excised tracheal segments; type: in vivo; conditions: 5 days
# Procedure: as §1
# This is equivalent to the oral dose used to treat persons with skin disease. For aerosol inhalation, ferrets were shallowly intubated with ETT, which was placed 1 cm below the larynx. […] Ferrets (body weight 1.5 kg) have 0.3-0.4 ml total lung lining fluid volume. Therefore, the dose delivered to the lung, is estimated to be 0.1 to 1.0 μg in this system given reported nebulization efficiency. […]
# A tracheal segment was placed on a piece of gauze saturated with Ringer's solution in a chamber in which the relative humidity was maintained at 95 to 100% and the temperature was maintained at 22° C. to 24° C. MCT was measured by focusing a tracheal segment under a microscope with gradicule (grid line) eyepiece and recording the transport time of the leading edge of very fine shavings of plastic that were placed on the tracheal epithelium. […]
# [9] = system: IL-13 induced goblet cell hyperplasia in NHBE cells; assay: In vitro model of IL-13 induced goblet cell hyperplasia, ALI-conditioned NHBE cells; type: cell-based, human
# Description: Globlet cells are columnar epithelial cells whose sole function is to secrete mucin, which dissolves in water to form mucus. […] An in vitro model of goblet cell hyperplasia was developed using normal human bronchial epithelial (NHBE) cells cultured under air-liquid interface (ALI) conditions.
# [10] = system: steroid-dependent asthma patients; conditions: orally administered dapsone; cited from earlier work
# [11] = in vivo; cited from earlier work
# [12] = system: IL-8 release from NHEK; conditions: cited from earlier work
compound,measurement,setting,value
"C[C@@H]1C[C@H]2[C@@H]3CCC4=CC(=O)C=C[C@]4(C)[C@@]3(F)[C@@H](O)C[C@]2(C)[C@@]1(O)C(=O)CO [DEX, dexamethasone]",decrease of basal IL-8 mRNA level,"[1]; DEX 0.1 μg/ml, P<0.05",~40%
"COc1cccc(-c2cc(=O)c3ccccc3o2)c1N [PD98059, 2′-amino-3′-methoxyflavone]",LPS-induced IL-8 secretion,[2]; PD98059 20 μM added 1 h before LPS,did not inhibit
same,LPS-induced ERK1/2 phosphorylation,"[3]; PD98059 20 μM added 1 h before LPS 10 μg/ml, 4 h",abolished
"Nc1ccc(S(=O)(=O)c2ccc(N)cc2)cc1 [dapsone, 4,4′-diaminodiphenyl sulfone]",basal IL-8 secretion,"[2]; dapsone 1 μg/ml, 48 and 72 h, no LPS",did not affect
same,LPS-induced IL-8 secretion over time,"[2]; dapsone 1 μg/ml, LPS 10 μg/ml, up to 72 h",significantly and persistently decreased
same,LPS-induced IL-8 secretion,"[2]; dapsone 0.3, 1 or 10 μg/ml, LPS 10 μg/ml, 24 h, P<0.01 for each",suppressed
same,basolateral IL-8 increased by AP- or BL-LPS,"[4]; P<0.001 AP-LPS, P<0.01 BL-LPS",inhibited
same,apical IL-8 level increased by AP-LPS,[4]; P<0.05,inhibited
same,basal IL-8 mRNA level,[1]; dapsone 1 μg/ml,did not influence
same,LPS-induced IL-8 mRNA over expression,"[1]; dapsone 1 and 10 μg/ml, LPS 10 μg/ml, P<0.05 for each",significantly inhibited
same,LPS-induced ERK1/2 phosphorylation at 1 h,"[3]; dapsone 1 μg/ml, LPS 10 μg/ml, 1 h, P<0.05",inhibited
same,LPS-induced ERK1/2 phosphorylation after 4 h,"[3]; dapsone 1 μg/ml, LPS 10 μg/ml, after 4 h",this effect disappeared
same,NF-κB p65 activation,[5]; dapsone 0.3 μg/mL,did not significantly inhibit
same,LPS-induced NF-κB p65 phosphorylation,"[5]; dapsone 1 μg/ml, LPS 10 μg/ml, 15 min to 2 h, to the control level",significantly inhibited
same,dose dependence of inhibition of NF-κB p65 phosphorylation,"[5]; dapsone 0.3, 1 and 10 μg/ml (P=0.16 for 0.3; P<0.01 for 1 and 10 μg/ml)",dose-dependent
same,ferret activity or appetite,[6],no measurable effect
same,ferret weight over 9 days,[6],no difference
same,neutrophil accumulation in tracheal epithelium,"[7]; nebulized dapsone 0.5 mg/ml, 15 min once daily, P<0.05",significantly inhibited
same,neutrophil recruitment in tracheal epithelium,"[7]; oral dapsone 2 mg/kg daily, P=0.3",tended to inhibit
same,MCT velocity,"[8]; aerosol dapsone 0.5 mg/ml, 15 min once daily, P=0.007 vs LPS control, normal approximately 7 mm/min",6 mm/min
same,MCT,"[8]; oral dapsone 2 mg/kg daily, P=0.09, LPS alone 1-3 mm/minute",the increase was not significant
same,growth of ALI-conditioned NHBE cells,"[9]; dapsone 3 μg/ml, no IL-13",no measurable effect
same,amount and extent of IL-13 induced goblet cell hyperplasia,"[9]; dapsone 10 μg/ml, vs control cell cultures",decreased
same,patients able to substantially reduce or stop taking steroids,[10],9 out of 10
same,therapeutic serum levels,[11],0.5 to 5 µg/mL
same,basal IL-8 level,[12]; NHEK,did not depress
same,bullous pemphigoid IgG-mediated IL-8 release,[12]; dapsone in a therapeutic concentration,inhibited
